In US20210227843A1, “A TEMPERING COMPOSITION FOR TEMPERING GRAIN AND CONTROLLING PATHOGENS IN AND/OR ON SAID GRAIN, AN OXIDIZING COMPOSITION FOR PREPARING SAID TEMPERING COMPOSITION, A USE OF SAID TEMPERING COMPOSITION AND A METHOD OF USE OF SAID TEMPERING COMPOSITION” (AGRI-NEO INC., priority 2017, published 2021):

Test: Flour functionality, sensory and physical characteristics after tempering wheat in an organic flour mill (Example 1)
Details: 2 L per ton of wheat (citric acid 2 Kg); 16 h hold

SMILES	MIXOLAB Stability
O=C(O)CC(O)(CC(=O)O)C(=O)O [Citric acid]	13.5 min
CC(O)C(=O)O (centres unmarked) [Lactic acid]	17.5 min
